Entries after “also recorded” stand apart in the source; their conditions may differ.
Tests used:
[1] = Stability of crystal under high humidity (40° C., 75% RH) conditions; format: physicochemical; conditions: stored at 40° C. and 75% RH for 2 weeks, hydrochloride
Description: (§1) X-ray diffraction patterns of crystals were taken using Cu-Kα radiation (40 kV, 40 mA, λ=1.541 angstroms) with a powder X-ray diffraction apparatus (X-ray diffraction RINT DMAX-2000, manufactured by Rigaku Industrial Corporation) (scanning speed: 5 degrees/min, scanning range: 5.000 to 40.000 degrees, filter: Kβ filter). Based on powder X-ray diffraction patterns thus obtained, peak positions and relative intensity (%) were determined for peaks with a relative intensity of not less than 20%.
Stability of Crystal Under High Humidity (40° C., 75% RH) Conditions
(§2) Form I to III crystals of hydrochloride, form I crystal of nitrate, form I and II crystals of sulfate, form I crystal of methanesulfonate, form I and II crystals of p-toluenesulfonate, and form I and II crystals of maleate of N-{2-chloro-4-[(6,7-dimethoxy-4-quinolyl)oxy]phenyl}-N′-(5-methyl-3-isoxazolyl)urea were stored under conditions of 40° C. and 75% RH for 2 weeks. […]

[2] = Stability of crystal against physical stress (grinding in a mortar); format: physicochemical; conditions: ground in an agate or porcelain mortar, hydrochloride
Description: as §1
Stability of Crystal Against Physical Stress
Each of form I to III crystals of hydrochloride, form I crystal of nitrate, form I and II crystals of sulfate, form I crystal of methanesulfonate, form I and II crystals of p-toluenesulfonate, and form I and II crystals of maleate of N-{2-chloro-4-[(6,7-dimethoxy-4-quinolyl)oxy]phenyl}-N′-(5-methyl-3-isoxazolyl)urea was ground in a mortar. In grinding each crystal in the mortar, about 1 mg of each crystal sample was placed and ground in an agate mortar or a porcelain mortar. For each sample before and after grinding, a powder X-ray diffraction chart was measured by method 1 to evaluate the stability of the crystal against physical stress.

[3] = Hygroscopicity of crystal (weight change on storage); format: physicochemical; conditions: 40° C. and 75% RH, hydrochloride; for hygroscopicity (level, in words): 2 weeks, based on weight change
Description: Hygroscopicity of Crystal
Form I to III crystals of hydrochloride, form I crystal of nitrate, form I and II crystals of sulfate, form I crystal of methanesulfonate, form I and II crystals of p-toluenesulfonate, and form I and II crystals of maleate of N-{2-chloro-4-[(6,7-dimethoxy-4-quinolyl)oxy]phenyl}-N′-(5-methyl-3-isoxazolyl)urea were stored under conditions of 40° C. and 75% RH for 2 weeks. Before and after the storage, the weight of each crystal was measured to determine a difference in weight between before the storage and after the storage.
For each crystal, the hygroscopicity was evaluated based on the weight change.

[4] = Stability of crystal under heating (73° C.) conditions; format: physicochemical; conditions: stored at 73° C. for 2 weeks, hydrochloride
Description: as §1
Stability of Crystal Under Heating (73° C.) Conditions
as §2, with “at 73°” for “under conditions of 40°”, “C.” for “C. and 75% RH”

[5] = Suspending crystal in aqueous methylcellulose solution (administration solution for rodents); format: physicochemical
Description: In the most preferred embodiment of the present invention, the crystal of a salt according to the present invention is form I crystal of N-{2-chloro-4-[(6,7-dimethoxy-4-quinolyl)oxy]phenyl}-N′-(5-methyl-3-isoxazolyl)urea hydrochloride. This form I crystal of hydrochloride has all physicochemical properties that are desired as pharmaceutical preparations for oral administration. The powder X-ray diffraction pattern of form I crystal of hydrochloride is not similar to that of other crystalline forms of hydrochloride (for example, form II crystal and form III crystal). Therefore, the mixing ratio of crystalline forms can be easily determined. […] Therefore, problems with administration are less likely to occur. Also in this respect, form I crystal of hydrochloride is advantageous.

[6] = test system: tumor; conditions: in vivo; cited from earlier work
[7] = listed as form I crystal of hydrochloride
[8] = listed as form III crystal of hydrochloride

SMILES	stability of crystal under high humidity conditions (change of powder X-ray diffraction chart) [1, 7]	stability of crystal against physical stress (powder X-ray diffraction before and after grinding) [2, 7]	hygroscopicity (level, in words) [3]	weight change (hygroscopicity) After 1 week [3] [%]	weight change (hygroscopicity) After 2 weeks [3] [%]	weight change (hygroscopicity) After 2 days [3] [%]	stability of crystal under high temperature conditions (change of powder X-ray diffraction chart) [4, 7]	formation of gel on suspending [5]	stability of crystal under high humidity conditions (change of powder X-ray diffraction chart) [1, 8]	stability of crystal against physical stress (powder X-ray diffraction before and after grinding) [2, 8]	stability of crystal under high temperature conditions (change of powder X-ray diffraction chart) [4, 8]	tumor enhancement inhibitory activity [6]
COc1cc2nccc(Oc3ccc(NC(=O)Nc4cc(C)on4)c(Cl)c3)c2cc1OC.Cl [Form I crystal of hydrochloride, N-{2-chloro-4-[(6,7-dimethoxy-4-quinolyl)oxy]phenyl}-N′-(5-methyl-3-isoxazolyl)urea hydrochloride]	excellent stability	excellent stability	low level of hygroscopicity; also recorded: on a low level	0.01	0.00	0.00	excellent stability	does not undergo a deterioration that results in the formation of gel	–	–	–	–
COc1cc2nccc(Oc3ccc(NC(=O)Nc4cc(C)on4)c(Cl)c3)c2cc1OC.Cl [Form III crystal of hydrochloride, N-{2-chloro-4-[(6,7-dimethoxy-4-quinolyl)oxy]phenyl}-N′-(5-methyl-3-isoxazolyl)urea hydrochloride]	–	–	highly hygroscopic	1.49	1.93	1.06	–	–	converted to form I crystal	lowering in peak intensity	converted to form II crystal	–
COc1cc2nccc(Oc3ccc(NC(=O)Nc4cc(C)on4)c(Cl)c3)c2cc1OC [N-{2-chloro-4-[(6,7-dimethoxy-4-quinolyl)oxy]phenyl}-N′-(5-methyl-3-isoxazolyl)urea]	–	–	–	–	–	–	–	–	–	–	–	has tumor enhancement inhibitory activity in vivo

Reference: patent US20060052415A1, “N-{2-chloro-4-[(6,7-dimethoxy-4-quinolyl)oxy]phenyl}-n'-(5-methyl-3-isoxazolyl)urea salt in crystalline form” (KIRIN BEER KABUSHIKI KAISHA, priority 2002, published 2006)
